1 compound from patent US20040014671A1, “Preventives or remedies for heart failure” (priority 2000, published 2004) can be followed below.

The subject of the data set is dogs with occluded anterior descending coronary artery. In words: Cardiac function of dog with anterior descending coronary artery occlusion after intravenous administration. In kind it is in vivo. To be noted: 100 μg/kg intravenously after occlusion. Here is the method: Using a dog model of acute contractile dysfunction caused by occlusion of the anterior descending coronary artery, the inventors studied the cardiotonic action of pralmorelin.
The action of pralmorelin on the cardiac dysfunction deteriorated by occlusion of the coronary artery was evaluated by various hemodynamic parameters, cardiac output (CO), stroke volume (SV), maximal positive dP/dt of left ventricular pressure (+dP/dtmax), ejection fraction (EF), mean blood pressure (MBP), heart rate (HR), total peripheral resistance (TPR) and double product (RPP) as an index of myocardial oxygen consumption.
Pralmorelin dihydrochloride (hereunder referred to as KP-102) (prepared by the method described in WO 9304081) was dissolved in distilled water to prepare a 0.5 mg/mL solution.
In the experiment, adult beagles of either sex (weighing 9-11 kg) purchased from Nihon Nosan Kogyo K.K. (Kanagawa, Japan) were used. After arrival, the animals were allowed to eat a solid meal (CD-5, CLEA Japan, Inc. or Labo D Stock, Nark Corp.) and drink water in a room at a temperature of 20±2° C. and at a humidity of 55±15% under illumination for 12 hours a day (from 7:00 to 19:00); the animals were kept under these conditions for at least one week before use.
Anesthesia was introduced by intravenous administration of pentobarbital (30 mg/kg) and in order to maintain anesthesia, pentobarbital (5-6 mg/kg/hr) was injected continuously by means of an infusion pump (FP-W-100, Toyo Sangyo) through a polyethylene cannula retained in the right cephalic vein. The endotracheal cannula was inserted and the chest was opened at the left fourth intercostal space under artificial respiration in a tidal volume of 20 mL/kg at a rate of 18 breaths/min with an artificial respirator (SN-480-3 of Shinano Seisakusho). The left anterior descending coronary artery was carefully detached from the site of origin over a length of 1-2 cm and an occluding thread was passed through.
The chest was opened at the left fifth intercostal space and a 5-segment conductance catheter (CCS-108-DA, Unique Medical) was inserted from the cardiac apex so that all electrodes would be placed in the left ventricle. A catheter equipped with a 5 Fr microtip pressure transducer (pressure transducer catheter, Model MPC-500, MILLAR) was inserted into the left ventricle through the left carotid artery. The conductance catheter and the pressure transducer catheter inserted into the left ventricle were connected to a built-in amplifier in a ventricular volume-measuring instrument (Integral 3; VPR-1002, Unique Medical) and the changes in the left ventricular pressure (LVP) and the volume of the left ventricle were measured simultaneously. To determine the mean blood pressure (MBP), blood pressure was measured via a blood pressure amplifier (AP641G, Nihon Kohden) from the 5 Fr pressure transducer catheter inserted into the left femoral artery. Heart rate (HR) was measured with a cardiotachometer (AT-601G, Nihon Kohden) from the pulse waves of blood pressure.
The chest was opened again at the fourth intercostal space and in order to measure the cardiac output (CO(EMF)) (CO as determined by an electromagnetic blood flowmeter based method), a probe connected to an electromagnetic blood flowmeter (MFV-2100, Nihon Kohden) was fitted at the site of origin of the aorta. A spiral electrode was put in the ischemic region that occurred due to the occlusion of coronary artery and a surface electrocardiogram was recorded. A Doppler probe was fitted on the left anterior descending coronary artery and the blood flow was determined with a Doppler blood flowmeter (PD-20, Crystal Biotech). The anterior descending coronary artery was occluded with pulling up the occluding thread over a period of about 5 minutes. Complete occlusion of the blood vessel was confirmed by the change in the surface electrocardiogram and the disappearance of the Doppler sound. […]

Where a SMILES comes first, the peptide text is derived from it. [ ]: non-standard residue; d: D form. d2Nal = N[C@H](Cc1ccc2ccccc2c1)C(=O)O

Turning to `C[C@H](NC(=O)[C@@H](Cc1ccc2ccccc2c1)NC(=O)[C@@H](C)N)C(=O)N[C@@H](Cc1c[nH]c2ccccc12)C(=O)N[C@H](Cc1ccccc1)C(=O)N[C@@H](CCCCN)C(N)=O` [KP-102, D-alanyl-3-(naphthalen-2-yl)-D-alanyl-L-alanyl-L-tryptophyl-D-phenylalanyl-L-lysinamide] (H-[dA][d2Nal]AW[dF]K-NH2), the “change in LVEDP” value is “Neither of the control and KP-102 groups showed changes”; the “change in LVPsys” value was “Neither of the control and KP-102 groups showed changes”; the “change in double product (RPP), index of myocardial oxygen consumption” value is listed as “Neither group experienced a change in RPP”; the “change in heart rate (HR)” value was “Neither of MBP and HR changed”. The “change in mean blood pressure (MBP)” value was “Neither of MBP and HR changed”; the “change in −dP/dtmax vs control group” value was “no significant change”. The “increase in stroke volume (SV) from baseline before administration” value (5 minutes after administration) was 5%. Besides, where the note is “10 minutes”, the “maximal increase in ejection fraction (EF)” value came to 10%. Also, the “increase in +dP/dtmax from baseline before administration” value (10 minutes after administration) was found to be 7%. For the setting “10 minutes after administration, n=5”, the “maximum increase in cardiac output (CO) from baseline before administration” value was 7%. Besides, where the note is “significant vs control”, the “change in total peripheral resistance (TPR)” value is on record as “TPR dropped following the administration”.
